Source: patent publication US20070149446A1, “Tamandarin analogs and fragments thereof and methods of making and using” (The Trustees of the University of Pennsylvania Center for …, priority 2003, published 2007)
Starred links: 1 amine or outer side, 2 acyl side, 3 side chain; linkers in the order of their positions; H or OH if unused. Positions of bridges follow the written chain, without caps; N, C: chain ends. Non-standard residues stand in square brackets, D forms with d. Residues, ends and D or L forms follow the SMILES beside them. Hexanoyl(3S-OH,4R-NH2,5-Me) = CC(C)[C@@H](N[*:1])[C@@H](O)CC(=O)[*:2]; NMeY = CN[C@@H](Cc1ccc(O)cc1)C(=O)O; NMeF = CN[C@@H](Cc1ccccc1)C(=O)O; dNMeL = CN[C@H](CC(C)C)C(=O)O; Hiv = CC(C)[C@H](O)C(=O)O; Lac = C[C@H](O)C(=O)O

Key:
[1] = test system: LN-caP; assay: SRB colorimetric cell growth inhibition assay, LN-caP; settings: SRB, 48 hours exposure; for TGI / CC50: LN-caP cells; for TGI: total growth inhibition; for GI50: LN-caP prostate adenocarcinoma cells; for CC50: read-out: LC50, cell killing
Experimental: (§1) This form of assay employs 96 well cell culture microplates of […] diameter (Faircloth, 1988; Mosmann, 1983). Most of the cell lines are obtained from American Type Culture Collection (ATCC) derived from different human cancer types.
(§2) Cells are maintained in RPMI 1640 10% FBS, supplemented with 0.1 g/l penicillin and 0.1 g/l streptomycin sulfate and then incubated at 37° C., 5% CO2 and 98% humidity. For the experiments, cells were harvested from subconfluent cultures using trypsin and resuspended in fresh medium before plating.
(§3) Cells are seeded in 96 well microtiter plates, at 5×10^3 cells per well in aliquots of 195 μl medium, and they are allowed to attach to the plate surface by growing in drug free medium for 18 hours. Afterward, samples are added in aliquots of 5 μl in a ranging from 10 to 10-8 μg/ml, dissolved in DMSO/EtOH/PBS (0.5:0.5:99). After 48 hours exposure, the antitumor effect are measured by the SRB methodology: cells are fixed by adding 50 μl of cold 50% (wt/vol) trichloroacetic acid (TCA) and incubated for 60 minutes at 4° C.
(§4) Plates are washed with deionised water and dried. One hundred μl of SRB solution (0.4% wt/vol in 1% acetic acid) is added to each microtiter well and incubated for 10 minutes at room temperature. Unbound SRB is removed by washing with 1% acetic acid. Plates are air dried and bound stain is solubilized with Tris buffer. Optical densities are read on a automated spectrophotometric plate reader at a single wavelength of 490 nm.
(§5) The values for mean+/−SD of data from triplicate wells are calculated.
(§6) Some parameters for cellular responses can be calculated: GI=growth inhibition, TGI=total growth inhibition (cytostatic effect) and LC=cell killing (cytotoxic effect).

[2] = test system: LOVO-DOX; assay: SRB colorimetric cell growth inhibition assay, LOVO-DOX; settings: SRB, 48 hours exposure; for GI50: LOVO-DOX (MDR) colon adenocarcinoma cells; for TGI / CC50: LOVO-DOX cells; for TGI: total growth inhibition; for CC50: read-out: LC50, cell killing
Experimental: as §1, §2, §3, §4, §5, §6

[3] = test system: LOVO; assay: SRB colorimetric cell growth inhibition assay, LOVO; settings: SRB, 48 hours exposure; for TGI / CC50: LOVO cells; for TGI: total growth inhibition; for GI50: LOVO colon adenocarcinoma cells; for CC50: read-out: LC50, cell killing
Experimental: as §1, §2, §3, §4, §5, §6

[4] = test system: PANC1; assay: SRB colorimetric cell growth inhibition assay, PANC1; settings: SRB, 48 hours exposure; for TGI / CC50: PANC1 cells; for TGI: total growth inhibition; for GI50: PANC1 pancreatic carcinoma cells; for CC50: read-out: LC50, cell killing
Experimental: as §1, §2, §3, §4, §5, §6

[5] = test system: SK-MEL-28; assay: SRB colorimetric cell growth inhibition assay, SK-MEL-28; settings: SRB, 48 hours exposure; for GI50: SK-MEL-28 (MEL-28) melanoma cells; for TGI / CC50: SK-MEL-28 cells; for TGI: total growth inhibition; for CC50: read-out: LC50, cell killing
Experimental: as §1, §2, §3, §4, §5, §6

[6] = test system: IGROV-ET; assay: SRB colorimetric cell growth inhibition assay, IGROV-ET; settings: SRB, 48 hours exposure; for GI50: IGROV-ET (ET-743 resistant) ovary cells; for TGI / CC50: IGROV-ET cells; for TGI: total growth inhibition; for CC50: read-out: LC50, cell killing
Experimental: as §1, §2, §3, §4, §5, §6

[7] = test system: DU145; assay: SRB colorimetric cell growth inhibition assay, DU145; settings: SRB, 48 hours exposure; for TGI / CC50: DU145 cells; for TGI: total growth inhibition; for GI50: DU145 prostate carcinoma cells; for CC50: read-out: LC50, cell killing
Experimental: as §1, §2, §3, §4, §5, §6

[8] = test system: HELA-APL; assay: SRB colorimetric cell growth inhibition assay, HELA-APL; settings: SRB, 48 hours exposure; for GI50: HELA-APL (aplidine resistant) cervix cells; for TGI / CC50: HELA-APL cells; for TGI: total growth inhibition; for CC50: read-out: LC50, cell killing
Experimental: as §1, §2, §3, §4, §5, §6

[9] = test system: HT29; assay: SRB colorimetric cell growth inhibition assay, HT29; settings: SRB, 48 hours exposure; for TGI / CC50: HT29 cells; for TGI: total growth inhibition; for GI50: HT29 colon adenocarcinoma cells; for CC50: read-out: LC50, cell killing
Experimental: as §1, §2, §3, §4, §5, §6

[10] = test system: K562; assay: SRB colorimetric cell growth inhibition assay, K562; settings: K562 cells, SRB, 48 hours exposure; for TGI: total growth inhibition; for CC50: read-out: LC50, cell killing
Experimental: as §1, §2, §3, §4, §5, §6

[11] = test system: SK-BR3; assay: SRB colorimetric cell growth inhibition assay, SK-BR3; settings: SRB, 48 hours exposure; for GI50: SK-BR3 breast adenocarcinoma cells; for TGI / CC50: SK-BR3 cells; for TGI: total growth inhibition; for CC50: read-out: LC50, cell killing
Experimental: as §1, §2, §3, §4, §5, §6

[12] = test system: HELA; assay: SRB colorimetric cell growth inhibition assay, HELA; settings: SRB, 48 hours exposure; for TGI / CC50: HELA cells; for TGI: total growth inhibition; for GI50: HELA cervix carcinoma cells; for CC50: read-out: LC50, cell killing
Experimental: as §1, §2, §3, §4, §5, §6

[13] = test system: A549; assay: SRB colorimetric cell growth inhibition assay, A549; settings: SRB, 48 hours exposure; for TGI / CC50: A549 cells; for TGI: total growth inhibition; for GI50: A549 lung carcinoma cells; for CC50: read-out: LC50, cell killing
Experimental: as §1, §2, §3, §4, §5, §6

[14] = test system: IGROV; assay: SRB colorimetric cell growth inhibition assay, IGROV; settings: SRB, 48 hours exposure; for TGI / CC50: IGROV cells; for TGI: total growth inhibition; for GI50: IGROV ovary adenocarcinoma cells; for CC50: read-out: LC50, cell killing
Experimental: as §1, §2, §3, §4, §5, §6

CC(C)C[C@@H]1NC(=O)[C@H](C(C)C)OC(=O)C[C@H](O)[C@@H](C(C)C)NC(=O)[C@@H](NC(=O)[C@@H](CC(C)C)N(C)C(=O)[C@@H]2CCCN2C(=O)[C@H](C)O)[C@@H](C)OC(=O)[C@H](Cc2ccccc2)N(C)C(=O)[C@@H]2CCCN2C1=O [Phe^5 tamandarin B, [N-MePhe^5]-Tamandarin B] (H-[Lac]P[dNMeL]T[Hexanoyl(3S-OH,4R-NH2,5-Me)][Hiv]LP[NMeF]; ester 4-C)
TGI [1]: 8.32E−09 Molar | GI50 [1]: 1.52 nM | CC50 [1]: 101 nM | GI50 [2]: 358 nM | TGI [2]: 1.97E−06 Molar | CC50 [2]: 9880 nM | TGI [3]: 8.81E−08 Molar | GI50 [3]: 26.1 nM | CC50 [3]: 5220 nM | TGI [4]: 3.28E−08 Molar | GI50 [4]: 3.81 nM | CC50 [4]: 9880 nM | GI50 [5]: 2.74 nM | TGI [5]: 1.88E−08 Molar | CC50 [5]: 205 nM | GI50 [6]: 215 nM | TGI [6]: 7.88E−07 Molar | CC50 [6]: 6350 nM | TGI [7]: 1.02E−08 Molar | GI50 [7]: 2.37 nM | CC50 [7]: 268 nM | GI50 [8]: 44.5 nM | TGI [8]: 4.23E−07 Molar | CC50 [8]: 9880 nM | TGI [9]: 7.89E−08 Molar | GI50 [9]: 4.77 nM | CC50 [9]: 9880 nM | GI50 [10]: 23.2 nM | TGI [10]: 9.88E−07 Molar | CC50 [10]: 9880 nM | GI50 [11]: 0.658 nM | TGI [11]: 4.49E−09 Molar | CC50 [11]: 312 nM | TGI [12]: 4.61E−09 Molar | GI50 [12]: 1.17 nM | CC50 [12]: 55.5 nM | TGI [13]: 3.90E−08 Molar | GI50 [13]: 4.56 nM | CC50 [13]: 935 nM | TGI [14]: 1.28E−08 Molar | GI50 [14]: 2.49 nM | CC50 [14]: 124 nM

COc1ccc(C[C@H]2C(=O)O[C@H](C)[C@H](NC(=O)[C@@H](CC(C)C)N(C)C(=O)[C@@H]3CCCN3C(=O)[C@H](C)O)C(=O)N[C@H](C(C)C)[C@@H](O)CC(=O)O[C@@H](C(C)C)C(=O)N[C@@H](CC(C)C)C(=O)N3CCC[C@H]3C(=O)N2C)cc1 [tamandarin B, Tamandarin B, reference compound] (H-[Lac]P[dNMeL]T[Hexanoyl(3S-OH,4R-NH2,5-Me)][Hiv]LP[NMeY](Me); ester 4-C)
TGI [1]: 2.13E−08 Molar | GI50 [1]: 5.84 nM | CC50 [1]: 142 nM | GI50 [2]: 1250 nM | TGI [2]: 9.59E−06 Molar | CC50 [2]: 9590 nM | TGI [3]: 1.61E−07 Molar | GI50 [3]: 30.5 nM | CC50 [3]: 9590 nM | TGI [4]: 5.69E−08 Molar | GI50 [4]: 14 nM | CC50 [4]: 413 nM | GI50 [5]: 3.03 nM | TGI [5]: 1.19E−08 Molar | CC50 [5]: 119 nM | GI50 [6]: 173 nM | TGI [6]: 2.04E−06 Molar | CC50 [6]: 9590 nM | TGI [7]: 2.41E−08 Molar | GI50 [7]: 7.08 nM | CC50 [7]: 79.7 nM | GI50 [8]: 59.7 nM | TGI [8]: 1.16E−06 Molar | CC50 [8]: 9590 nM | TGI [9]: 4.32E−08 Molar | GI50 [9]: 6.32 nM | CC50 [9]: 9590 nM | GI50 [10]: 8.47 nM | TGI [10]: 2.63E−08 Molar | CC50 [10]: 78.2 nM | GI50 [11]: 5.44 nM | TGI [11]: 2.49E−08 Molar | CC50 [11]: 236 nM | TGI [12]: 1.76E−08 Molar | GI50 [12]: 3.9 nM | CC50 [12]: 120 nM | TGI [13]: 4.01E−08 Molar | GI50 [13]: 7.62 nM | CC50 [13]: 766 nM | TGI [14]: 2.91E−08 Molar | GI50 [14]: 7.31 nM | CC50 [14]: 133 nM
